Laboratory results as given in publication PMC9399069, “Imaging PARP with [^18F]rucaparib in pancreatic cancer models” (European Journal of Nuclear Medicine and Molecular Imaging, 2022).
“And” between values parts separate entries of the source, which are not always exact repeats. Identical values can stand only once.

Assays:
[1] = system: PSN1 xenografts; experiment: Dynamic PET/CT imaging of [18F]rucaparib in PSN1 tumour-bearing mice; type: in vivo, Balb/c nu/nu mice
Method: Female Balb/c nu/nu (OlaHsd-Foxn1^nu) mice, aged 4–6 weeks, were purchased from Envigo (UK). Animals were housed in IVC cages, up to 6 per cage, in an artificial day–night cycle facility. Food and water were provided ad libitum. PSN1 cells were harvested using trypsin, washed twice with PBS and reconstituted in PBS:Matrigel® Matrix High Concentration (1:1). Cell suspensions (PSN1: 2 × 10^6 cells/ 100 μL) were injected subcutaneously in the lower right flank. […] Animal was anesthetised by 4% isoflurane gas (0.5 L/min O2) and maintained at 2.5% at 37 °C throughout the duration of image acquisition. PET images were reconstructed using U-SPECT-Rec3.22 software (MILabs, Utrecht, The Netherlands), applying a pixel-based algorithm, ordered subset expectation maximisation (OSEM) with 6 subsets, 4 iterations and 0.8 mm voxel size for fluorine-18 (energy window settings 477.9–584.1 keV). Reconstructed PET and CT images were viewed and analysed using PMOD v.3.37 (PMOD Technologies, Zurich, Switzerland).

[2] = system: AsPC1 cells; experiment: Cell retention of [18F]rucaparib and [18F]olaparib in AsPC1 cells; type: cell-based, human
Method: (§1) AsPC1 (1 × 10^5 cells/well) and PSN1 cells (7.5 × 10^4 cells/well) were exposed to [^18F]rucaparib (100 kBq, 4.8 GBq/μmol; [^TotalF]rucaparib final concentration: 258 nM) or [^18F]olaparib (400 kBq, 2.8 GBq/μmol: [^TotalF]olaparib final concentration: 242 nM) in 24-well plates at 37 °C for 30 min. Cell culture medium was removed, and cells were washed with PBS, followed by the addition of fresh medium (300 μL). Cells were then further incubated at 37 °C. Cell culture medium was removed, and cells were washed with PBS at different times (0–3 h). Cells were lysed using RIPA buffer for 15 min at room temperature, and the amount of ^18F in the cell lysates was measured as above.

[3] = system: PSN1 cells; experiment: In vitro uptake and binding selectivity of [18F]rucaparib in PSN1 cells; type: cell-based, human; settings: 37 °C
Method: (§2) AsPC1 (1 × 10^5 cells/well) and PSN1 cells (7.5 × 10^4 cells/well) were seeded separately in 24-well plates (in 300 μL growth medium) and allowed to adhere for at least 20 h. […] To assess [^18F]rucaparib-binding selectivity, unlabelled PARP inhibitors, IMPDH2 or ALDH2 inhibitor, were added (100 μM, in 270 μL growth medium) for 45 min at 37 °C before addition of [^18F]rucaparib (156 kBq, 6.8 GBq/μmol; [^TotalF]rucaparib final concentration: 100 nM), and the cells were incubated at 37 °C for a further 45 min. Cell culture medium was removed, and cells were washed with PBS. Cells were lysed using RIPA buffer for 15 min at room temperature, and the amount of ^18F in the cell lysates was measured using an automated gamma counter (PerkinElmer), normalising for the number of cells.
(§3) Cells were lysed and the amount of ^18F in the cell lysates was measured as above.

[4] = system: AsPC1 cells; experiment: In vitro uptake and binding selectivity of [18F]rucaparib in AsPC1 cells; type: cell-based, human; settings: [TotalF]rucaparib 258 nM, 37 °C, Fig. 1B
Method: as §2, §3

[5] = system: PSN1 xenografts; experiment: Ex vivo biodistribution of [18F]rucaparib in PSN1 tumour-bearing mice; set-up: species or system Balb/c nu/nu mice; settings: for Ex vivo biodistribution, Blood / Ex vivo biodistribution, Bone / Ex vivo biodistribution, Fat / Ex vivo biodistribution, Heart / Ex vivo biodistribution, Kidney / Ex vivo biodistribution, Large intestine / Ex vivo biodistribution, Lung / Ex vivo biodistribution, Muscle / Ex vivo biodistribution, Pancreas / Ex vivo biodistribution, Small intestine / Ex vivo biodistribution, Tumour: i.v.; for Tumour uptake / Tumour-to-blood (T/B) ratio: PSN1 xenografts; for Tumour uptake: mean ± SD
Method: Female Balb/c nu/nu (OlaHsd-Foxn1^nu) mice, aged 4–6 weeks, were purchased from Envigo (UK). Animals were housed in IVC cages, up to 6 per cage, in an artificial day–night cycle facility. Food and water were provided ad libitum.
PSN1 cells were harvested using trypsin, washed twice with PBS and reconstituted in PBS:Matrigel® Matrix High Concentration (1:1). Cell suspensions (PSN1: 2 × 10^6 cells/ 100 μL) were injected subcutaneously in the lower right flank.
Animals were administered [^18F]rucaparib (0.87–11.38 MBq in 100 μL of PBS, Am = 1.5–30.9 GBq/μmol) by intravenous injection via the lateral tail vein. To evaluate the selectivity of tumour uptake, an excess of unlabelled rucaparib or olaparib (0.5 mg) was co-administered as a blocking agent in some animals. Dynamic PET images (1 h) were acquired using a MILabs VECTor^4 camera, equipped with an ultra-high resolution rat/mouse collimator (1.8 mm), followed by a cone-beam CT scan (55 kV, 0.19 mA) for anatomical reference and attenuation correction. Animal was anesthetised by 4% isoflurane gas (0.5 L/min O2) and maintained at 2.5% at 37 °C throughout the duration of image acquisition. PET images were reconstructed using U-SPECT-Rec3.22 software (MILabs, Utrecht, The Netherlands), applying a pixel-based algorithm, ordered subset expectation maximisation (OSEM) with 6 subsets, 4 iterations and 0.8 mm voxel size for fluorine-18 (energy window settings 477.9–584.1 keV). Reconstructed PET and CT images were viewed and analysed using PMOD v.3.37 (PMOD Technologies, Zurich, Switzerland).
Either 1 h or 2 h after radiolabelled compound injection, animals were euthanised. Selected organs, tissues and blood were removed, and the percentage of the injected dose per gram of tissue (%ID/g) was determined, using a HIDEX automated gamma counter.

[6] = system: PSN1 cells; experiment: Cell retention of [18F]rucaparib and [18F]olaparib in PSN1 cells; type: cell-based, human
Method: as §1

[7] = PSN1 tumour-bearing mice, i.v., n=3
[8] = PSN1 tumour-bearing mice, i.v., n=3, biphasic
[9] = 1 h post-injection, individual animals (n=3)
[10] = 2 h post-injection, individual animals (n=6)

Q: `CNCc1ccc(-c2[nH]c3cc([18F])cc4c3c2CCNC4=O)cc1` [[^18F]rucaparib] was tested. Which Elimination pathways ([1]; PSN1 tumour-bearing mice, dynamic imaging and biodistribution) did it give?
A: Its Elimination pathways is “hepatobiliary and renal”.

Q: What about the “Half-life for liver elimination” value ([1]; PSN1 tumour-bearing mice, i.v.) of the same molecule?
A: Its value is 31 ± 19 min.

Q: What about the Weighted blood half-life ([1]; PSN1 tumour-bearing mice, i.v., 8.9 μg or 27.5 nmol/kg) of the same molecule?
A: The Weighted blood half-life was 4.3 ± 0.62 min.

Q: What about the “Blood clearance, fraction of fast phase” value [1, 7] of the same molecule?
A: The value was 54 ± 10%.

Q: What about the “Blood clearance, fraction of slow phase” value [1, 7] of the same molecule?
A: The value was 46 ± 10%.

Q: What about the “Blood clearance, fast half-life” value [1, 8] of the same molecule?
A: Its value is 1.7 ± 0.44 min.

Q: What about the “Blood clearance, slow half-life” value [1, 8] of the same molecule?
A: The value was 16 ± 10 min.

Q: What about the “Tumour-to-muscle (T/M) ratio from PET/CT images” value ([1]; PSN1 xenografts, 50 min post-injection) of the same molecule?
A: The value was 2.3 ± 1.1.

Q: And the “Time of tumour uptake (VOI analysis)” value ([1]; PSN1 xenografts, dynamic PET)?
A: Its value is at most 10 min.

Q: And the “Time of uptake in kidney and bladder” value ([1]; dynamic PET, indicates fast renal clearance)?
A: Its value is at most 5 min.

Q: What about the “Uptake and retention compared with [TotalF]olaparib” value [2] of the same molecule?
A: Its value is 100 fold.

Q: What about the “Cellular uptake (time)” value ([3]; PSN1 cells, [TotalF]rucaparib 258 nM, Fig. 1B) of the same molecule?
A: Its value is under 1 min.

Q: And the “Cell association of [18F]rucaparib” value ([3]; PSN1 versus AsPC1 cells, 64 nM and 258 nM, 30 min)?
A: The value was “higher in PSN1 cells than in AsPC1 cells”.

Q: What about the “Cellular uptake (time)” value [4] of the same molecule?
A: The value was under 1 min.

Q: And the “Ex vivo biodistribution, Blood” value [5, 9]?
A: Its value is 3.51 %ID/g and 3.67 %ID/g and 3.59 %ID/g.

Q: And the “Ex vivo biodistribution, Bone” value [5, 9]?
A: Its value is 4.90 %ID/g and 6.79 %ID/g and 5.26 %ID/g.

Q: And the “Ex vivo biodistribution, Fat” value [5, 9]?
A: The value was 6.53 %ID/g and 4.98 %ID/g and 6.82 %ID/g.

Q: What about the “Ex vivo biodistribution, Heart” value [5, 9] of the same molecule?
A: The value was 13.27 %ID/g and 16.24 %ID/g and 17.47 %ID/g.

Q: What about the “Ex vivo biodistribution, Kidney” value [5, 9] of the same molecule?
A: The value was 17.24 %ID/g and 30.17 %ID/g and 36.00 %ID/g.

Q: And the “Ex vivo biodistribution, Large intestine” value [5, 9]?
A: The value was 12.50 %ID/g and 16.33 %ID/g and 14.08 %ID/g.

Q: And the “Ex vivo biodistribution, Lung” value [5, 9]?
A: The value was 17.76 %ID/g and 25.71 %ID/g and 27.51 %ID/g.

Q: And the “Ex vivo biodistribution, Muscle” value [5, 9]?
A: The value was 2.63 %ID/g and 4.25 %ID/g and 3.13 %ID/g.

Q: What about the “Ex vivo biodistribution, Pancreas” value [5, 9] of the same molecule?
A: The value was 19.47 %ID/g and 23.54 %ID/g and 23.22 %ID/g.

Q: And the “Ex vivo biodistribution, Small intestine” value [5, 9]?
A: Its value is 33.79 %ID/g and 46.24 %ID/g.

Q: And the “Ex vivo biodistribution, Tumour” value [5, 9]?
A: The value was 5.25 %ID/g and 6.05 %ID/g and 5.16 %ID/g.

Q: And the “Ex vivo biodistribution, Blood” value [5, 10]?
A: The value was 0.92 %ID/g and 0.49 %ID/g and 0.48 %ID/g and 1.57 %ID/g and 0.51 %ID/g and 0.44 %ID/g.

Q: And the “Ex vivo biodistribution, Bone” value [5, 10]?
A: Its value is 3.49 %ID/g and 2.71 %ID/g and 2.38 %ID/g and 3.10 %ID/g and 2.18 %ID/g and 2.26 %ID/g.

Q: And the “Ex vivo biodistribution, Fat” value [5, 10]?
A: Its value is 1.32 %ID/g and 0.74 %ID/g and 0.84 %ID/g and 1.78 %ID/g and 1.03 %ID/g and 0.86 %ID/g.

Q: What about the “Ex vivo biodistribution, Heart” value [5, 10] of the same molecule?
A: Its value is 2.44 %ID/g and 2.15 %ID/g and 1.73 %ID/g (2×) and 1.61 %ID/g and 1.27 %ID/g.

Q: What about the “Ex vivo biodistribution, Kidney” value [5, 10] of the same molecule?
A: Its value is 7.28 %ID/g and 6.56 %ID/g and 5.54 %ID/g and 7.41 %ID/g and 4.70 %ID/g and 4.13 %ID/g.

Q: What about the “Ex vivo biodistribution, Large intestine” value [5, 10] of the same molecule?
A: The value was 23.81 %ID/g and 19.26 %ID/g and 15.83 %ID/g and 25.44 %ID/g and 36.97 %ID/g and 43.06 %ID/g.

Q: What about the “Ex vivo biodistribution, Lung” value [5, 10] of the same molecule?
A: Its value is 8.77 %ID/g and 6.24 %ID/g and 4.58 %ID/g and 9.27 %ID/g and 5.27 %ID/g.

Q: What about the “Ex vivo biodistribution, Muscle” value [5, 10] of the same molecule?
A: The value was 2.51 %ID/g and 1.58 %ID/g and 1.90 %ID/g and 2.77 %ID/g and 1.57 %ID/g (2×).

Q: And the “Ex vivo biodistribution, Pancreas” value [5, 10]?
A: Its value is 13.99 %ID/g and 9.45 %ID/g and 9.78 %ID/g and 11.07 %ID/g and 9.35 %ID/g and 7.70 %ID/g.

Q: And the “Ex vivo biodistribution, Small intestine” value [5, 10]?
A: The value was 16.44 %ID/g and 9.50 %ID/g and 19.42 %ID/g and 22.39 %ID/g and 10.51 %ID/g and 13.44 %ID/g.

Q: What about the “Ex vivo biodistribution, Tumour” value [5, 10] of the same molecule?
A: Its value is 2.58 %ID/g and 2.10 %ID/g and 1.74 %ID/g and 2.60 %ID/g and 3.45 %ID/g and 2.99 %ID/g.

Q: What about the Tumour uptake ([5]; 1 h after i.v. administration) of the same molecule?
A: Its Tumour uptake is 5.5 ± 0.5 %ID/g and 5.49 ± 0.49 %ID/g.

Q: And the “Tumour-to-blood (T/B) ratio” value ([5]; 1 h post-administration)?
A: The value was 1.53 ± 0.11.

Q: And the “Tumour-to-blood (T/B) ratio” value ([5]; 2 h post-administration)?
A: Its value is 4.33 ± 2.1.

Q: And the Tumour uptake ([5]; 2 h post-administration)?
A: The Tumour uptake was 2.2 ± 0.34 %ID/g.

Q: What about the “Uptake and retention compared with [TotalF]olaparib” value [6] of the same molecule?
A: Its value is 100 fold.
